Test results: US11242327B2, “Analgesic compounds” (RECURIUM IP HOLDINGS, LLC, priority 2017, dated 2022)

What was measured:
male Sprague-Dawley rats [1] = test: Osteoarthritis Pain Test (MIA, mechanical hyperalgesia); type: in vivo; conditions: rat; for joint compression threshold, Day 3, 1 h: Day 3, 1 h post-dosing; for joint compression threshold, Day 3, 2 h: Day 3, 2 h post-dosing; for joint compression threshold, Day 3, 4 h: Day 3, 4 h post-dosing; for joint compression threshold, Day 6, 1 h: Day 6, 1 h post-dosing; for joint compression threshold, Day 6, 2 h: Day 6, 2 h post-dosing; for joint compression threshold, Day 6, 4 h: Day 6, 4 h post-dosing; for joint compression threshold, Day 0, 1 h: Day 0, 1 h post-dosing; for joint compression threshold, Day 0, 2 h: Day 0, 2 h post-dosing; for joint compression threshold, Day 0, 4 h: Day 0, 4 h post-dosing
Protocol: Osteoarthritis pain was induced in non-fasted male Sprague-Dawley rats weighing 150-250 g by injecting 2 mg of monosodium iodoacetate (MIA) into the left knee joint. Mechanical hyperalgesia was measured using a digital Randall-Selitto device (dRS; IITC Life Sciences©; Woodland Hills, Calif.). Animals were allowed to acclimate to the testing room for a minimum of 15 minutes before testing. Animals were placed in a restraint sling that suspended the animal, leaving the hind limbs available for testing. The stimulus was applied to the knee joint by a blunt tip and pressure was applied gradually over approximately 10 seconds. Joint compression threshold values were recorded at the first observed nocifensive behavior (vocalization, struggle, or withdrawal). One reading per joint was taken at each time point, and a maximum stimulus cutoff of 500 grams was used to prevent injury to the animal. Mechanical hyperalgesia was assessed prior to MIA injection, and again 14 days later. After 14 days, test or control articles were administered once daily for 7 days with mechanical hyperalgesia assessed prior to dosing, 1, 2, and 4 hours post-dosing on days 0, 3, and 6. Test compounds were administered orally at concentrations of 3, 10, 30 or 100 mg/kg and celecoxib was administered orally at a concentration of 30 mg/kg. The control group received the vehicle (sterile water). After day 0, groups receiving the 100 mg/kg dose were reduced to a dose of 3 mg/kg. In Table 5, ‘A’ designates ≥375 grams of joint compression, ‘B’ designates ≥325 and <375 grams of joint compression, and ‘C’ designates <325 grams of joint compression.
The results provided in Table 5 are for oral administration in rats.

Opiate κ = Opiate κ (Homo sapiens, UniProt P41145); test: NSAIDS and Opioid Receptor Test: Opiate κ; type: binding; conditions: 10 μM
Protocol: Compounds were screened as DMSO solutions at 10 μM, 100 μM, or 200 μM and values represent percent inhibition of control-specific binding. […] As NSAID and opioid mechanisms of action are precluded, a person of ordinary skill in the art understands that undesirable side effects associated with inhibition of COX receptors in NSAIDs and activation of opiate receptors in opioids can be avoided by compounds described herein. Furthermore, opioids are known to lose their analgesic potency after to continued administration. (See Benyamin, et al. “Opioid Complications and Side Effects” Pain Physician 11 (2008): S105-S120). As the data indicates compounds described herein have a different mechanism action compared to opioids, a person of ordinary skill in the art would appreciate that compounds described herein would not be expected to lose their analgesic potency like opioids after continued admininistration.

[2] = Bioavailability Test (rat pharmacokinetics); type: in vivo
male Sprague-Dawley rats [3] = test: UVB Inflammatory Pain Test (thermal hyperalgesia); type: in vivo; conditions: rat, oral; for paw withdrawal latency, 1 h: 1 h after dosing; for paw withdrawal latency, 2 h: 2 h after dosing; for paw withdrawal latency, 4 h: 4 h after dosing
Procedure, shortened: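 Left hind-paw plantar UVB (350 mJoules/cm^2) given on Day −3 to male Sprague-Dawley rats; on Day 0, test compounds dosed orally at 3, 10, 30 or 100 mg/kg, with water vehicle, celecoxib 30 mg/kg and acetaminophen 300 mg/kg. Radiant-heat paw withdrawal latency (mean of 3, 30 s cutoff) measured before dosing and about 1, 2 and 4 h after.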

[4] = oral once daily, 3 mg/kg (group had 100 mg/kg on day 0)
[5] = male, Sprague-Dawley, in vivo, IV 3 mg/kg, 0.9% saline
[6] = male, Sprague-Dawley, in vivo, PO 30 mg/kg, sterile water

Chain of Opiate κ (P41145 whole entry): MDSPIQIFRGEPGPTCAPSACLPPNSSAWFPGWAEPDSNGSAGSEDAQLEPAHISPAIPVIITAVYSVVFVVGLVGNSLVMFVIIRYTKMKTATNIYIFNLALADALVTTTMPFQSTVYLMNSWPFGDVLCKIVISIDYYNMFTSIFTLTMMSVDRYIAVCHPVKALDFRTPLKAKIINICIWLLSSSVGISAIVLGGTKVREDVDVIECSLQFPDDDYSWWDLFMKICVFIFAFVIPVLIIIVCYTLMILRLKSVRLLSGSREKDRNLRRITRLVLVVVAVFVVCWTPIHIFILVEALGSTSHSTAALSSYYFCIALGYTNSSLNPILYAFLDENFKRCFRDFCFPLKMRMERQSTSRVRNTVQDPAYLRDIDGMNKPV

Compound: Cc1sc(C23CC(N)(C2)C3)nc1C(F)(F)F.Cl [Compound 2, 3-(5-Methyl-4-(trifluoromethyl)thiazol-2-yl)bicyclo[1.1.1]pentan-1-amine hydrochloride]
- joint compression threshold, Day 3, 1 h (male Sprague-Dawley rats [1]; [4]): A (≥375 grams of joint compression)
- joint compression threshold, Day 3, 2 h (male Sprague-Dawley rats [1]; [4]): A (≥375 grams of joint compression)
- joint compression threshold, Day 3, 4 h (male Sprague-Dawley rats [1]; [4]): A (≥375 grams of joint compression)
- joint compression threshold, Day 6, 1 h (male Sprague-Dawley rats [1]; [4]): B (≥325 and <375 grams of joint compression)
- joint compression threshold, Day 6, 2 h (male Sprague-Dawley rats [1]; [4]): B (≥325 and <375 grams of joint compression)
- joint compression threshold, Day 6, 4 h (male Sprague-Dawley rats [1]; [4]): B (≥325 and <375 grams of joint compression)
- joint compression threshold, Day 0, 1 h (male Sprague-Dawley rats [1]; oral once daily, 10 mg/kg): C (<325 grams of joint compression)
- joint compression threshold, Day 0, 2 h (male Sprague-Dawley rats [1]; oral once daily, 10 mg/kg): C (<325 grams of joint compression)
- joint compression threshold, Day 0, 4 h (male Sprague-Dawley rats [1]; oral once daily, 10 mg/kg): C (<325 grams of joint compression)
- joint compression threshold, Day 3, 1 h (male Sprague-Dawley rats [1]; oral once daily, 10 mg/kg): B (≥325 and <375 grams of joint compression)
- joint compression threshold, Day 3, 2 h (male Sprague-Dawley rats [1]; oral once daily, 10 mg/kg): A (≥375 grams of joint compression)
- joint compression threshold, Day 3, 4 h (male Sprague-Dawley rats [1]; oral once daily, 10 mg/kg): C (<325 grams of joint compression)
- joint compression threshold, Day 6, 1 h (male Sprague-Dawley rats [1]; oral once daily, 10 mg/kg): B (≥325 and <375 grams of joint compression)
- joint compression threshold, Day 6, 2 h (male Sprague-Dawley rats [1]; oral once daily, 10 mg/kg): B (≥325 and <375 grams of joint compression)
- joint compression threshold, Day 6, 4 h (male Sprague-Dawley rats [1]; oral once daily, 10 mg/kg): A (≥375 grams of joint compression)
- joint compression threshold, Day 0, 1 h (male Sprague-Dawley rats [1]; oral once daily, 30 mg/kg): B (≥325 and <375 grams of joint compression)
- joint compression threshold, Day 0, 2 h (male Sprague-Dawley rats [1]; oral once daily, 30 mg/kg): B (≥325 and <375 grams of joint compression)
- joint compression threshold, Day 0, 4 h (male Sprague-Dawley rats [1]; oral once daily, 30 mg/kg): B (≥325 and <375 grams of joint compression)
- joint compression threshold, Day 3, 1 h (male Sprague-Dawley rats [1]; oral once daily, 30 mg/kg): B (≥325 and <375 grams of joint compression)
- joint compression threshold, Day 3, 2 h (male Sprague-Dawley rats [1]; oral once daily, 30 mg/kg): B (≥325 and <375 grams of joint compression)
- joint compression threshold, Day 3, 4 h (male Sprague-Dawley rats [1]; oral once daily, 30 mg/kg): B (≥325 and <375 grams of joint compression)
- joint compression threshold, Day 6, 1 h (male Sprague-Dawley rats [1]; oral once daily, 30 mg/kg): B (≥325 and <375 grams of joint compression)
- joint compression threshold, Day 6, 2 h (male Sprague-Dawley rats [1]; oral once daily, 30 mg/kg): B (≥325 and <375 grams of joint compression)
- joint compression threshold, Day 6, 4 h (male Sprague-Dawley rats [1]; oral once daily, 30 mg/kg): A (≥375 grams of joint compression)
- joint compression threshold, Day 0, 1 h (male Sprague-Dawley rats [1]; oral, 100 mg/kg): A (≥375 grams of joint compression)
- joint compression threshold, Day 0, 2 h (male Sprague-Dawley rats [1]; oral, 100 mg/kg): A (≥375 grams of joint compression)
- joint compression threshold, Day 0, 4 h (male Sprague-Dawley rats [1]; oral, 100 mg/kg): A (≥375 grams of joint compression)
- inhibition at 10 µM (Opiate κ): -9%
- F ([2]; PO 30 mg/kg vs IV 3 mg/kg): 79%
- AUC(0-inf) [2, 5]: 4 µM·h
- clearance [2, 5]: 52 mL/min/kg
- half-life [2, 5]: 2.7 h
- Vd ([2]; male, Sprague-Dawley, in vivo, IV 3 mg/kg, 0.9% saline, read-out: Vdss): 3.6 L/kg
- AUC(0-inf) [2, 6]: 29 µM·h
- Cmax [2, 6]: 12 µM
- Tmax [2, 6]: 1 h
- half-life [2, 6]: 2.4 h
- paw withdrawal latency, 1 h (male Sprague-Dawley rats [3]; 3 mg/kg): A (>8 seconds of paw withdrawal latency)
- paw withdrawal latency, 2 h (male Sprague-Dawley rats [3]; 3 mg/kg): A (>8 seconds of paw withdrawal latency)
- paw withdrawal latency, 4 h (male Sprague-Dawley rats [3]; 3 mg/kg): A (>8 seconds of paw withdrawal latency)
- paw withdrawal latency, 1 h (male Sprague-Dawley rats [3]; 10 mg/kg): A (>8 seconds of paw withdrawal latency)
- paw withdrawal latency, 2 h (male Sprague-Dawley rats [3]; 10 mg/kg): B (>6 and <8 seconds of paw withdrawal latency)
- paw withdrawal latency, 4 h (male Sprague-Dawley rats [3]; 10 mg/kg): A (>8 seconds of paw withdrawal latency)
- paw withdrawal latency, 1 h (male Sprague-Dawley rats [3]; 30 mg/kg): A (>8 seconds of paw withdrawal latency)
- paw withdrawal latency, 2 h (male Sprague-Dawley rats [3]; 30 mg/kg): A (>8 seconds of paw withdrawal latency)
- paw withdrawal latency, 4 h (male Sprague-Dawley rats [3]; 30 mg/kg): B (>6 and <8 seconds of paw withdrawal latency)
- paw withdrawal latency, 1 h (male Sprague-Dawley rats [3]; 100 mg/kg): A (>8 seconds of paw withdrawal latency)
- paw withdrawal latency, 2 h (male Sprague-Dawley rats [3]; 100 mg/kg): A (>8 seconds of paw withdrawal latency)
- paw withdrawal latency, 4 h (male Sprague-Dawley rats [3]; 100 mg/kg): A (>8 seconds of paw withdrawal latency)
